13 compounds from US20240308992A1 (Biopolar Youtang(Guangdong) Pharmaceutical Co., Ltd., priority 2021, published 2024) can be followed below.

The target in this assay is T1, Drak2 (Homo sapiens, UniProt O94768).
T1 sequence (O94768 1-372): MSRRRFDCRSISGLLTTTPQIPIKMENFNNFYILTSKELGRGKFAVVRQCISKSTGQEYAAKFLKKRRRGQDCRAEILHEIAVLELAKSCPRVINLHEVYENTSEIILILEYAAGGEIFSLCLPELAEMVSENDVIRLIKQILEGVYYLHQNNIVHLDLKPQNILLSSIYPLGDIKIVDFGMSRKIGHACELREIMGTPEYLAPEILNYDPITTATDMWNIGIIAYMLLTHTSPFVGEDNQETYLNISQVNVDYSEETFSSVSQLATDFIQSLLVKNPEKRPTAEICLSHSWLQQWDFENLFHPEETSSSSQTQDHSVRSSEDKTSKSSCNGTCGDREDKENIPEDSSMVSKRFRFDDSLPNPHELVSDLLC
Briefly: Drak2 activity test, ADP-Glo kinase assay (Promega). It counts as biochemical. The following applies: inhibition of Drak2 kinase activity, 2 h room temperature, activity range classes, read-out: IC50_Drak2.
For the compound `COc1cc(-c2cncc(-c3cc(NC(=O)CC4CC(F)C4)cs3)n2)ccc1C(=O)N(C)C1CC2(C1)CN(C)C2` (stereo not shown) [Example B99, 4-(6-(4-(2-(3-fluorocyclobutyl)acetamido)thiophen-2-yl)pyrazin-2-yl)-2-methoxy-N-methyl-N-(2-methyl-2-azaspiro[3.3]heptan-6-yl)benzamide], the IC50 was less than 10 nM.

Turning to `COc1cc(-c2cncc(-c3cc(NC(=O)CC4CC(OC)C4)cs3)n2)ccc1C(=O)N(C)C1CC2(C1)CN(C)C2` (stereo not shown) [Example 206, 2-Methoxy-4-(6-(4-(2-(3-methoxycyclobutyl)acetylamino)thiophen-2-yl)pyrazin-2-yl)-N-methyl-N-(2-methyl-2-azaspiro [3.3]heptane-6-yl) benzamide], the IC50 fell in the range of 11 to 100 nM.

On to `COc1cc(-c2cncc(-c3cc(NC(=O)CC4CC4)cs3)n2)ccc1C(=O)Nc1nnco1` [Example B46, 4-(6-(4-(2-cyclopropylacetamido)thiophen-2-yl)pyrazin-2-yl)-2-methoxy-N-(1,3,4-oxadiazol-2-yl)benzamide], for which the IC50 lay in the range of 11 to 100 nM.

Regarding `COc1cc(-c2cncc(-c3cc(NC(=O)CC4CCC4)cs3)n2)ccc1OCCN1CCSCC1` [Example 190], the IC50 lay within 11 to 100 nM.

On to `COc1cc(-c2cncc(-c3cc(NC(=O)CC4CC(C(C)(F)F)C4)cs3)n2)ccc1C(=O)N(C)C1CCN(C)CC1` (stereo not shown) [Example B92, 4-(6-(4-(2-(3-(1,1-difluoroethyl)cyclobutyl)acetamido)thiophen-2-yl)pyrazin-2-yl)-2-methoxy-N-methyl-N-(1-methylpiperidin-4-yl)benzamide], for which the IC50 is 11 to 100 nM.

As to `CCCCC(=O)Nc1csc(-c2cncc(-c3cccs3)n2)c1` [Example 219, N-{5-[6-(thiophen-2-yl)pyrazin-2-yl]thiophen-3-yl}pentanamide], the IC50 is 11 to 100 nM.

For the compound `CCCCC(=O)Nc1csc(-c2cncc(-c3ccc(CCO)s3)n2)c1` [Example 218, N-(5-{6-[5-(2-hydroxyethyl)thiophen-2-yl]pyrazin 2-yl}thiophen-3-yl) pentanamide], the IC50 is 11 to 100 nM.

Regarding `CCCCC(=O)Nc1csc(-c2cncc(-c3ccc(C(=O)N(C4CC4)C4CCN(C5CC5)CC4)c(OC)c3)n2)c1` [Example B78, N-cyclopropyl-N-(1-cyclopropylpiperidin-4-yl)-2-methoxy-4-(6-(4-pentanamidothiophen-2-yl)pyrazin-2-yl)benzamide], the IC50 was in the range of 11 to 100 nM.

For the compound `CCCCCCC(=O)Nc1csc(-c2cncc(-c3ccc(C(=O)Nc4nnn[nH]4)c(OC)c3)n2)c1` [Example B17, 2-methoxy-4-(6-(4-heptanamidothiophen-2-yl)pyrazin-2-yl)-N-(1H-tetrazol-5-yl)benzamide], the IC50 was in the range of 1000 to 10000 nM.

For the compound `COc1cc(-c2cncc(-c3cc(NC(=O)CC4CCC4)cs3)n2)ccc1C(=O)N(C)C1CCN(C)CC1` [Example B63, 4-(6-(4-(2-cyclobutylacetamido)thiophen-2-yl)pyrazin-2-yl)-2-methoxy-N-methyl-N-(1-methylpiperidin-4-yl)benzamide], the IC50 was less than 10 nM.

As for `CCCCC(=O)Nc1csc(-c2cncc(-c3ccc(-c4cc(O)no4)c(OC)c3)n2)c1` [Example A36, N-(5-(6-(4-(3-hydroxyisoxazol-5-yl)-3-methoxyphenyl)pyrazin-2-yl)thiophen-3-yl)pentanamide], the IC50 lay within 101 to 1000 nM.

For `CCCCC(=O)Nc1csc(-c2cncc(-c3ccc(OC)c(OC)c3)c2C(N)=O)c1` [Example C3, 3-(3,4-dimethoxyphenyl)-5-(4-pentanamidothiophen-2-yl)isonicotinamide], the IC50 was 1000 to 10000 nM.

Take `COc1cc(-c2cncc(-c3cc(NC(=O)CC4CCC4)cs3)n2)ccc1C(=O)N1CCN(C2CCN(C)CC2)CC1` [Example B51, 2-cyclobutyl-N-(5-(6-(3-methoxy-4-(4-(1-methylpiperidin-4-yl)piperazine-1-carbonyl)phenyl)pyrazin-2-yl)thiophen-3-yl)acetamide]: the IC50 fell in the range of 11 to 100 nM.
